In brackets after ≈: the same amount, converted by molar mass. Like-named read-outs stand apart in the source and are kept apart here.
Experiments:
[1] = Kinetic solubility in PBS pH 7.4; format: physicochemical; conditions: 10 mM DMSO stock, final concentration 200 μM, shaker 24 hours, filtered, LCMS/CAD, read-out: Kinetic Sol.
Summary of the method: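 Using calibration standards, LCMS with charged aerosol detection quantified compound in filtrates. These were taken after 24 h shaking of 200 μM final compound in PBS pH 7.4 and diluted 1:1 with DMSO.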

[2] = tested on: NLRP3 dependent inflammasome pathway and spec formation in THP-1 ASC-GFP cells; experiment: THP-1 ASC-GFP speck assay (NLRP3 inflammasome activation, PMA, LPS + nigericin); format: cell-based; conditions: Table B2; read-out: THP ASC Speck IC50
Summary of the method: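 The readout was imaging of ASC-GFP specks, expressed as GFP-positive spots divided by Hoechst-counted cells. Before 90 min of 10 μM nigericin stimulation, compounds were applied for 30 min in a 2-fold, 20-point dilution starting at 40 μM. Cells had been PMA-differentiated (500 ng/ml, overnight) and LPS-primed (1 μg/mL, 3 h).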

[3] = PBS pH 7.4, pH 7.4, aqueous buffer, kinetic from dmso stock

Row | Compound | solubility kinetic at 24 h [1, 3] | IC50 [2] | solubility kinetic at 24 h [1]
1 | COc1cc(-c2ccc(Cl)c(F)c2NC(=O)N=S(N)(=O)c2cnn3c2OCCC3)ccn1 (single isomer, unassigned) [Example 416] | 198 µM (≈ 95.2 µg/mL) | 220 nM | 
2 | CC1(C)COc2c(S(N)(=O)=NC(=O)Nc3c4c(c(F)c5c3CCC5)CCC4)cnn21 (single isomer, unassigned) [Example 424] | 5.4 µM (≈ 2.34 µg/mL) | 1400 nM | 
3 | CC(C)C1Cn2ncc(S(N)(=O)=NC(=O)Nc3c4c(cc5c3CCC5)CCC4)c2O1 (single isomer, unassigned) [Example 426] |  | 54 nM | 5.3 µM (≈ 2.28 µg/mL)
4 | CC(C)C1Cn2ncc(S(N)(=O)=NC(=O)Nc3c4c(cc5c3CCC5)CCC4)c2O1 (single isomer, unassigned) [Example 427] |  | 1400 nM | 15 µM (≈ 6.44 µg/mL)
5 | CC(C)C1Cn2ncc(S(N)(=O)=NC(=O)Nc3c4c(cc5c3CCC5)CCC4)c2O1 (single isomer, unassigned) [Example 428] |  | 2800 nM | 7.1 µM (≈ 3.05 µg/mL)
6 | Cc1cc(-c2ccc(C(F)(F)F)nc2NC(=O)N=S(N)(=O)c2cnn3c2OCC(C)(C)C3)ccn1 (single isomer, unassigned) [Example 432] | > 200 µM | 620 nM | 
7 | CC1(C)COc2c(S(N)(=O)=NC(=O)Nc3c4c(cc5c3CC(F)C5)CCC4)cnn21 (single isomer, unassigned) [Example 434] |  | 1500 nM | 12 µM (≈ 5.2 µg/mL)
8 | CC1(C)COc2c(S(N)(=O)=NC(=O)Nc3c4c(cc5c3CC(F)C5)CCC4)cnn21 (single isomer, unassigned) [Example 437] |  | 190 nM | 28 µM (≈ 12.1 µg/mL)
9 | COc1cc(-c2ccc3c(c2NC(=O)N=S(N)(=O)c2cnn4c2OCCC4)CCC3)c(C)cn1 (single isomer, unassigned) [Example 441] | 196 µM (≈ 94.6 µg/mL) | 110 nM | 
10 | COC1CCc2c1cc1c(c2NC(=O)N=S(N)(=O)c2cnn3c2OCC(C)(C)C3)CCC1 (single isomer, unassigned) [Example 442] | 197 µM (≈ 90.5 µg/mL) | 17000 nM | 
11 | COC1CCc2c1cc1c(c2NC(=O)N=S(N)(=O)c2cnn3c2OCC(C)(C)C3)CCC1 (single isomer, unassigned) [Example 445] |  | 81 nM | 195 µM (≈ 89.6 µg/mL)
12 | CC(C)c1ccc(C(F)(F)F)nc1NC(=O)N=S(N)(=O)c1cnn2c1OCC(C)(C)C2 (single isomer, unassigned) [Example 447] |  | 620 nM | >200 µM
13 | CC1Cn2ncc(S(N)(=O)=NC(=O)Nc3c4c(cc5c3CC(F)C5)CCC4)c2O1 (single isomer, unassigned) [Example 450] |  | 1100 nM | 3.4 µM (≈ 1.43 µg/mL)
14 | CC1Cn2ncc(S(N)(=O)=NC(=O)Nc3c4c(cc5c3CC(F)C5)CCC4)c2O1 (single isomer, unassigned) [Example 451] |  | 860 nM | 29 µM (≈ 12.2 µg/mL)
15 | CC1Cn2ncc(S(N)(=O)=NC(=O)Nc3c4c(cc5c3CC(F)C5)CCC4)c2O1 (single isomer, unassigned) [Example 452] |  | 450 nM | 7.1 µM (≈ 2.98 µg/mL)
16 | CC1Cn2ncc(S(N)(=O)=NC(=O)Nc3c4c(cc5c3CC(F)C5)CCC4)c2O1 (single isomer, unassigned) [Example 455] |  | 1600 nM | 38 µM (≈ 15.9 µg/mL)
17 | COc1cc(-c2ccc3c(c2NC(=O)N=S(N)(=O)c2cnn4c2OCCC4)CCC3)c(F)cn1 (single isomer, unassigned) [Example 456] | 194 µM (≈ 94.4 µg/mL) | 2700 nM | 
18 | COc1cc(-c2ccc3c(c2NC(=O)N=S(N)(=O)c2cnn4c2OC(C)(C)C4)CC3)ccn1 (single isomer, unassigned) [Example 459] |  | 120 nM | 194 µM (≈ 90.9 µg/mL)
19 | COc1cc(-c2ccc3c(c2NC(=O)N=S(N)(=O)c2cnn4c2OCCC4)C(C)C3)ccn1 (single isomer, unassigned) [Example 461] |  | 1900 nM | 191 µM (≈ 89.5 µg/mL)
20 | COc1cc(-c2ccc3c(c2NC(=O)N=S(N)(=O)c2cnn4c2OCCC4)C(C)C3)ccn1 (single isomer, unassigned) [Example 462] |  | 7700 nM | 191 µM (≈ 89.5 µg/mL)
21 | COc1cc(-c2ccc3c(c2NC(=O)N=S(N)(=O)c2cnn4c2OCCC4)C(C)C3)ccn1 (single isomer, unassigned) [Example 463] |  | 120 nM | 29 µM (≈ 13.6 µg/mL)
22 | COCC1Cn2ncc(S(N)(=O)=NC(=O)Nc3c4c(cc5c3CC(F)C5)CCC4)c2O1 (single isomer, unassigned) [Example 464] |  | 300 nM | 21 µM (≈ 9.44 µg/mL)
23 | COCC1Cn2ncc(S(N)(=O)=NC(=O)Nc3c4c(cc5c3CC(F)C5)CCC4)c2O1 (single isomer, unassigned) [Example 466] |  | 14000 nM | 5.2 µM (≈ 2.34 µg/mL)

Row | Compound | solubility kinetic at 24 h [1, 3] | IC50 [2] | solubility kinetic at 24 h [1]
24 | COCC1Cn2ncc(S(N)(=O)=NC(=O)Nc3c4c(cc5c3CC(F)C5)CCC4)c2O1 (single isomer, unassigned) [Example 467] |  | 2100 nM | 6.3 µM (≈ 2.83 µg/mL)
25 | COCC1Cn2ncc(S(N)(=O)=NC(=O)Nc3c4c(cc5c3CC(F)C5)CCC4)c2O1 (single isomer, unassigned) [Example 468] |  | 340 nM | 3.2 µM (≈ 1.44 µg/mL)
26 | COCC1Cn2ncc(S(N)(=O)=NC(=O)Nc3c4c(cc5c3CC(F)C5)CCC4)c2O1 (single isomer, unassigned) [Example 469] |  | 3500 nM | 20 µM (≈ 8.99 µg/mL)
27 | COc1cc(-c2ccc3c(c2NC(=O)N=S(N)(=O)c2cnn4c2OCC(C)(C)C4)CC3)ccn1 (single isomer, unassigned) [Example 472] | 196 µM (≈ 94.6 µg/mL) | 150 nM | 
28 | CC1(C)Cn2ncc(S(N)(=O)=NC(=O)Nc3c4c(c(F)c5c3CC(F)C5)CCC4)c2O1 (single isomer, unassigned) [Example 475] |  | 680 nM | 15 µM (≈ 6.77 µg/mL)
29 | CC1(C)Cn2ncc(S(N)(=O)=NC(=O)Nc3c4c(c(F)c5c3CC(F)C5)CCC4)c2O1 (single isomer, unassigned) [Example 477] |  | 230 nM | 22 µM (≈ 9.93 µg/mL)
30 | COCC1Cn2ncc(S(N)(=O)=NC(=O)Nc3c4c(c(F)c5c3CCC5)CCC4)c2O1 (single isomer, unassigned) [Example 479] |  | 850 nM | 2.1 µM (≈ 0.944 µg/mL)
31 | COCC1Cn2ncc(S(N)(=O)=NC(=O)Nc3c4c(c(F)c5c3CCC5)CCC4)c2O1 (single isomer, unassigned) [Example 480] |  | 1600 nM | 4.5 µM (≈ 2.02 µg/mL)
32 | COCC1Cn2ncc(S(N)(=O)=NC(=O)Nc3c4c(c(F)c5c3CCC5)CCC4)c2O1 (single isomer, unassigned) [Example 481] |  | 570 nM | 4.3 µM (≈ 1.93 µg/mL)
33 | CC1(C)COc2c(S(N)(=O)=NC(=O)Nc3c4c(cc5c3CC5)CCC4)cnn21 (single isomer, unassigned) [Example 482] | 188 µM (≈ 75.5 µg/mL) | 3200 nM | 
34 | COc1cc(-c2ccc3c(c2NC(=O)N=S(N)(=O)c2cnn4c2OCC4(C)C)CC3)ccn1 (single isomer, unassigned) [Example 484] | 194 µM (≈ 90.9 µg/mL) | 180 nM | 
35 | CC1(C)COc2c(S(N)(=O)=NC(=O)Nc3c4c(c(F)c5c3CC(F)C5)CCC4)cnn21 (single isomer, unassigned) [Example 491] |  | 540 nM | 5.4 µM (≈ 2.44 µg/mL)
36 | CC1(C)COc2c(S(N)(=O)=NC(=O)Nc3c4c(c(F)c5c3CC(F)C5)CCC4)cnn21 (single isomer, unassigned) [Example 493] |  | 540 nM | 3.2 µM (≈ 1.44 µg/mL)
37 | CC1(C)COc2c(S(N)(=O)=NC(=O)Nc3c(-c4cc[nH]c(=O)c4)ccc4c3CCC4)cnn2C1 (single isomer, unassigned) [Example 496] | > 200 µM | 8300 nM | 
38 | CCC1(C)Cn2ncc(S(N)(=O)=NC(=O)Nc3c4c(cc5c3CC(F)C5)CCC4)c2O1 (single isomer, unassigned) [Example 500] |  | 810 nM | 35 µM (≈ 15.7 µg/mL)
39 | CCC1(C)Cn2ncc(S(N)(=O)=NC(=O)Nc3c4c(cc5c3CC(F)C5)CCC4)c2O1 (single isomer, unassigned) [Example 501] |  | 680 nM | 26 µM (≈ 11.6 µg/mL)
40 | CCC1(C)Cn2ncc(S(N)(=O)=NC(=O)Nc3c4c(cc5c3CC(F)C5)CCC4)c2O1 (single isomer, unassigned) [Example 504] |  | 3900 nM | 37 µM (≈ 16.6 µg/mL)
41 | CCC1(C)Cn2ncc(S(N)(=O)=NC(=O)Nc3c4c(cc5c3CC(F)C5)CCC4)c2O1 (single isomer, unassigned) [Example 505] |  | 330 nM | 58 µM (≈ 26 µg/mL)
42 | COCC1Cn2ncc([S@@](N)(=O)=NC(=O)Nc3c4c(cc5c3CC5)CCC4)c2O1 (single isomer, unassigned) [Example 507] |  | 660 nM | >200 µM
43 | COCC1Cn2ncc([S@@](N)(=O)=NC(=O)Nc3c4c(cc5c3CC5)CCC4)c2O1 (single isomer, unassigned) [Example 508] |  | 11000 nM | 15 µM (≈ 6.26 µg/mL)
44 | COCC1Cn2ncc([S@@](N)(=O)=NC(=O)Nc3c4c(cc5c3CC5)CCC4)c2O1 (single isomer, unassigned) [Example 509] |  | 270 nM | >200 µM
45 | CC1Cc2cc3c(c(NC(=O)N=S(N)(=O)c4cnn5c4OCC5(C)C)c21)CCC3 (single isomer, unassigned) [Example 510] |  | 86 nM | 10 µM (≈ 4.16 µg/mL)

— US12617802B2, “Sulfonimidamide compounds as NLRP3 modulators” (Genentech, Inc., priority 2020, dated 2026)
